For one assay, the species on record is Homo sapiens. Kind of assay: In vitro inhibition of platelet aggregation in human platelet-rich plasma induced by ADP. The class given is functional.
Assay [1] has as its target Integrin alpha-IIb/beta-3 (Homo sapiens, UniProt P05106+P08514). Kind of assay: In vitro binding affinity against human alpha IIb beta-3 integrin. The class given is protein-complex assay.

Broadly, the IC50 is the concentration at which inhibition is half-maximal. The Ki is the dissociation constant of the complex between target and ligand, obtained from inhibition or displacement. Low readings indicate tighter binding, high ones weaker binding.

Integrin alpha-IIb/beta-3, sequence (P05106 27-788 limits assumed): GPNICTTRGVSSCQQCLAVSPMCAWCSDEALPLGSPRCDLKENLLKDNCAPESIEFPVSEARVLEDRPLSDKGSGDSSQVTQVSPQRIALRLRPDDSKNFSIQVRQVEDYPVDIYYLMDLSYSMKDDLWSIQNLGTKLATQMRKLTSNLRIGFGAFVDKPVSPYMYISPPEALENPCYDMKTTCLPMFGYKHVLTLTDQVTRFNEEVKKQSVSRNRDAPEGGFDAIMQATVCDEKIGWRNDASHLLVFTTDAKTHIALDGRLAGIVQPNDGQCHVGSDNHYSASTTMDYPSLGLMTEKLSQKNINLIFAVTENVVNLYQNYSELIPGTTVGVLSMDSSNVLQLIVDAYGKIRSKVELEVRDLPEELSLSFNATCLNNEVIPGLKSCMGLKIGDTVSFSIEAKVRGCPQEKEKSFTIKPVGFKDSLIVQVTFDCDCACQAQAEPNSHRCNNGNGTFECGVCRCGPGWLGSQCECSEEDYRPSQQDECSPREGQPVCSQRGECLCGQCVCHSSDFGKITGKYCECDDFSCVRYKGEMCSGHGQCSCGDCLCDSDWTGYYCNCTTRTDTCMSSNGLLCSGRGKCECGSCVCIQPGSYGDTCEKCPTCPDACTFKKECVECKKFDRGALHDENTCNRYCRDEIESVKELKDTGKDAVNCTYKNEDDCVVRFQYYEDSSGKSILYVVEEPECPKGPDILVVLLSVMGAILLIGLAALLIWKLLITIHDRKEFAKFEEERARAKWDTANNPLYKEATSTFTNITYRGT
Integrin alpha-IIb/beta-3, sequence (P08514 32-887 limits assumed): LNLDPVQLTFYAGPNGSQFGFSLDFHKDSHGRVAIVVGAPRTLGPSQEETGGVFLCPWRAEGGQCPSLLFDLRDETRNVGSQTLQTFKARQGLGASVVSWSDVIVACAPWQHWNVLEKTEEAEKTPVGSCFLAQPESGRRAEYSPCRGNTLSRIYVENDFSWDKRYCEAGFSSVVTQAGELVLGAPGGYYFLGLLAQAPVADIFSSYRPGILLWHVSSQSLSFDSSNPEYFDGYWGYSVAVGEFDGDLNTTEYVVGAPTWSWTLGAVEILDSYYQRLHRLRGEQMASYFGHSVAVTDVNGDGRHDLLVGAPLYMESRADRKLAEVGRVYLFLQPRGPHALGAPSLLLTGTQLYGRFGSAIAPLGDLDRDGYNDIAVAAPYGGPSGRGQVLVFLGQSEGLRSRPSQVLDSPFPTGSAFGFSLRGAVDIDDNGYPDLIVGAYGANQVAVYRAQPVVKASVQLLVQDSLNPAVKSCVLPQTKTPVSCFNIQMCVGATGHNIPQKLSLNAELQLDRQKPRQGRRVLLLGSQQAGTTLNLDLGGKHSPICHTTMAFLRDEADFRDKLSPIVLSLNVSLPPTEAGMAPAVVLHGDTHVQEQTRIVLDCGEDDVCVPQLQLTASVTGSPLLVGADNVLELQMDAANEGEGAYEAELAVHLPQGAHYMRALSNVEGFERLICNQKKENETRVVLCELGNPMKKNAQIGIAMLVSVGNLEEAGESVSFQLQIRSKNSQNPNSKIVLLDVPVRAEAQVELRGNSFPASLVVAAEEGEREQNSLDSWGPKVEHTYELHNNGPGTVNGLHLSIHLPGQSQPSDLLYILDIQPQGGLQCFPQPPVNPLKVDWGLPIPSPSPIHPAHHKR
Integrin alpha-IIb/beta-3, sequence (P08514 891-1039 limits assumed): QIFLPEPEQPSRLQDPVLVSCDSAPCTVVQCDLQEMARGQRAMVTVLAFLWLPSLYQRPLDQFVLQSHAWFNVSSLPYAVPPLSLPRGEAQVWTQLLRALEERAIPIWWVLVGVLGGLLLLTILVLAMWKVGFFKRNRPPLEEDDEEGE

As for `N=C(N)c1ccc(NC(=O)c2ccc3c(c2)NC(CC(=O)O)C(=O)N(CCc2ccccc2)C3)cc1` (configuration not stated), in the assay filed under Homo sapiens, the IC50 was found to be 8 nM.
On to `CN(CCC1CCNCC1)C(=O)c1ccc2c(c1)CC(CC(=O)O)C(=O)N(CCc1cccs1)C2` (configuration not stated), for which, in the assay listed under Homo sapiens, the half-maximal inhibitory concentration (IC50) was found to be 18 nM. The molecule further gave a Ki in assay [1] of 2.5 nM.
In the same order, the values of `CN(CCC1CCNCC1)C(=O)c1ccc2c(c1)CC(CC(=O)O)C(=O)N(CCCCCc1ccccc1)C2` (configuration not stated) are 8 nM and 2 nM.
In the same order, the values of `CN(CCC1CCNCC1)C(=O)c1ccc2c(c1)CC(CC(=O)O)C(=O)N(C)C2` (configuration not stated) are 33 nM and 1.5 nM.
In the same order, the values of `CC(C)N1Cc2ccc(C(=O)N(C)CCC3CCNCC3)cc2CC(CC(=O)O)C1=O` (configuration not stated) are 37 nM and 2 nM.
On to `CN(CCC1CCNCC1)C(=O)c1ccc2c(c1)CC(CC(=O)O)C(=O)N(C1CCCCC1)C2` (configuration not stated), for which, in the assay filed under Homo sapiens, the IC50 turned out to be 49 nM. The Ki in assay [1] was 1.3 nM.
For the molecule `CN(CCC1CCNCC1)C(=O)c1ccc2c(c1)CC(CC(=O)O)C(=O)NC2` (configuration not stated), the half-inhibitory concentration (IC50) in the assay listed under Homo sapiens came out at 71 nM. This molecule also registered a Ki in assay [1] of 3.2 nM.
In the same order, the values of `CN(CCC1CCNCC1)C(=O)c1ccc2c(c1)CC(CC(=O)O)C(=O)N(CCc1ccccc1)C2` (configuration not stated) are 13 nM and 3 nM.
With `CN(CCC1CCNCC1)C(=O)c1ccc2c(c1)CC(CCC(=O)O)C(=O)N(CCc1ccccc1)C2` (configuration not stated), in the assay listed under Homo sapiens, the concentration for half-maximal inhibition (IC50) was determined as 7790 nM. In assay [1], this molecule displayed a Ki of 650 nM.
In the same order, the values of `CN(CCC1CCNCC1)C(=O)c1ccc2c(c1)CC(CC(=O)O)C(=O)N(Cc1ccccc1)C2` (configuration not stated) are 36 nM and 1 nM.
With `CN(CCC1CCNCC1)C(=O)c1ccc2c(c1)CC(CC(=O)O)C(=O)N(CCC1CCCCC1)C2` (configuration not stated), in the assay listed under Homo sapiens, 27 nM corresponded to half-maximal inhibition (IC50). Also, the Ki in assay [1] is 2 nM.
In the same order, the values of `CC(C)CCN1Cc2ccc(C(=O)N(C)CCC3CCNCC3)cc2CC(CC(=O)O)C1=O` (configuration not stated) are 32 nM and 1.5 nM.
Molecule `CN(C(=O)c1ccc2c(c1)CC(CC(=O)O)C(=O)N(CCc1ccccc1)C2)c1ccc(C(=N)N)cc1` (configuration not stated) showed a half-inhibitory concentration (IC50) in the assay filed under Homo sapiens of 12 nM. This molecule also gave a Ki in assay [1] of 1.5 nM.
In the same order, the values of `CN(CCC1CCNCC1)C(=O)c1ccc2c(c1)CC(CC(=O)O)C(=O)N(CCc1ccc(F)cc1)C2` (configuration not stated) are 27 nM and 1.7 nM.
In the same order, the values of `CN(CCC1CCNCC1)C(=O)c1ccc2c(c1)CC(CC(=O)O)C(=O)N(CCC(C)(C)C)C2` (configuration not stated) are 27 nM and 2 nM.
In the same order, the values of `CCCCN1Cc2ccc(C(=O)N(C)CCC3CCNCC3)cc2CC(CC(=O)O)C1=O` (configuration not stated) are 31 nM and 1.5 nM.
In the assay filed under Homo sapiens, `CN(C(=O)c1ccc2c(c1)NC(CC(=O)O)C(=O)N(CCc1ccccc1)C2)c1ccc(C(=N)N)cc1` (configuration not stated) showed an IC50 of 28 nM.
